# Test system: mutant spike proteins including D614G, delta (B.1.617.2), and omicron (B.1.1.529) – hACE2
# Assay type: binding, SARS-CoV-2, human
# Conditions: read-out: IC50 in all assays with mutant spike proteins
row,SMILES,IC50 [nM]
1,"O=S(=O)(O)c1ccc(/N=N/c2c(O)ccc3cc(S(=O)(=O)O)ccc23)cc1 [Sunset yellow, sunset yellow FCF]",> 500000
2,O=C(Nc1ccc(-c2ccc(C(=O)Nc3cccc4c(S(=O)(=O)O)cccc34)cc2)cc1)c1ccc([N+](=O)[O-])cc1 [DRI-C24041],< 3000
3,O=C(Nc1ccc(-c2ccc(C(=O)Nc3cccc4cc(S(=O)(=O)O)ccc34)cc2)cc1)c1ccc([N+](=O)[O-])cc1 [DRI-C23041],< 3000

# Source: PMC9504289 (Pharmaceuticals, 2022)
